Reference: patent US20240116946A1 (Gilead Sciences, Inc., priority 2022, published 2024)
Where two headings read alike, the source gives them in different places.

How the values were obtained:
[1] = molecular target: recombinant SARS-CoV-2 Main protease (Mpro) (Severe acute respiratory syndrome coronavirus 2 (2019-nCoV) (SARS-CoV-2), UniProt P0DTD1); assay: Cov Mpro Biochemical IC50 Assay; settings: fluorogenic peptide substrate
SARS-CoV-2-NLuc = assay: microbe, parasite or virus in culture; assay type: cell-based, SARS Coronavirus 2
[2] = recombinant SARS-CoV-2 Mpro, read-out: MPro IC50
[3] = Severe acute respiratory syndrome coronavirus, 48 h; read-out: MPro EC50
[4] = Severe acute respiratory syndrome coronavirus, 48 h, read-out: MPro EC50

Row | SMILES | IC50 [1, 2] [nM] | EC50 (SARS-CoV-2-NLuc; [3]) [nM] | EC50 (SARS-CoV-2-NLuc; [4]) [nM] | IC50 ([1]; MPro IC50, recombinant SARS-CoV-2 Mpro) [nM]
1 | N#Cc1ccccc1-c1nc2[nH]c(=O)n(-c3cncc4ccccc34)c(=O)c2s1 [Example 118, 2-(6-(isoquinolin-4-yl)-5,7-dioxo-4,5,6,7-tetrahydrothiazolo[4,5-d]pyrimidin-2-yl)benzonitrile] | 290 | 11700 | – | –
2 | Cc1c(C2CCOCC2)cncc1-n1c(=O)[nH]c2cc(-c3ccccc3Cl)sc2c1=O [Example 119, 6-(2-chlorophenyl)-3-(4-methyl-5-(tetrahydro-2H-pyran-4-yl)pyridin-3-yl)thieno[3,2-d]pyrimidine-2,4(1H,3H)-dione] | 386 | – | 2760 | –
3 | O=c1c2sc(-c3ccccc3Cl)cc2n(CC2CCOCC2)c(=O)n1-c1cncc2ccccc12 [Example 120, 6-(2-chlorophenyl)-3-(isoquinolin-4-yl)-1-((tetrahydro-2H-pyran-4-yl)methyl)thieno[3,2-d]pyrimidine-2,4(1H,3H)-dione] | 96.8 | – | 275 | –
4 | Cc1ccncc1-n1c(=O)[nH]c2cc(-c3ccccc3Cl)ccc2c1=O [Example 121, 7-(2-chlorophenyl)-3-(4-methylpyridin-3-yl)quinazoline-2,4(1H,3H)-dione] | 708 | – | 1150 | –
5 | O=c1[nH]c2cc(-c3ccccc3Cl)ccc2c(=O)n1-c1cccnc1 [Example 122] | 1010 | – | 3910 | –
6 | O=c1[nH]c2cc(-c3ccccc3Cl)ccc2c(=O)n1-c1cncnc1 [Example 123] | > 100000 | – | 47000 | –
7 | CCc1ccncc1-n1c(=O)[nH]c2cc(-c3ccccc3Cl)ccc2c1=O [Example 124] | 948 | – | 2220 | –
8 | O=c1[nH]c2cc(-c3ccccc3Cl)ccc2c(=O)n1-c1cnccc1C(F)(F)F [Example 125] | 22500 | – | 17500 | –
9 | COC(=O)[C@H]1C[C@@H]1c1cncc(-n2c(=O)[nH]c3cc(-c4ccccc4Cl)ccc3c2=O)c1C [Example 126] | > 50000 | – | > 50000 | –
10 | O=c1[nH]c2cc(-c3ccccc3Cl)ccc2c(=O)n1-c1cncc(C2CC2)c1 [Example 127] | – | 652 | – | 776
11 | O=c1[nH]c2cc(-c3ccccc3Cl)ccc2c(=O)n1-c1cnccc1N1CCOCC1 [Example 128] | 510 | 1320 | – | –
12 | O=c1[nH]c2cc(-c3ccccc3Cl)ccc2c(=O)n1-c1cnccc1C1CCOCC1 [Example 129] | 1030 | – | 1230 | –
13 | O=c1[nH]c2cc(-c3ccccc3Cl)sc2c(=O)n1-c1cnccc1C1CC1 [Example 130, 6-(2-chlorophenyl)-3-(4-cyclopropylpyridin-3-yl)thieno[3,2-d]pyrimidine-2,4(1H,3H)-dione] | 73.1 | – | 147 | –
14 | O=c1[nH]c2cc(-c3ccccc3Cl)sc2c(=O)n1-c1cnnc2ccccc12 [Example 131] | 97 | – | 633 | –
15 | Cc1cncc(-n2c(=O)[nH]c3cc(-c4ccccc4Cl)sc3c2=O)c1C [Example 132] | 9.12 | – | 27.4 | –
16 | O=c1[nH]c2cc(-c3ccccc3Cl)sc2c(=O)n1-c1cncc2cccnc12 [Example 133, 6-(2-chlorophenyl)-3-(1,6-naphthyridin-8-yl)thieno[3,2-d]pyrimidine-2,4(1H,3H)-dione] | 12.8 | – | 27.7 | –
17 | O=c1[nH]c2cc(-c3ccccc3Cl)sc2c(=O)n1-c1cncc2ncccc12 [Example 134] | 63.3 | – | 150 | –
18 | O=c1[nH]c2cc(-c3ccccc3Cl)sc2c(=O)n1-c1cncc2nccn12 [Example 135] | 51.5 | – | 288 | –
19 | COC(=O)[C@H]1C[C@@H]1c1cncc(-n2c(=O)[nH]c3cc(-c4ccccc4Cl)sc3c2=O)c1C [Example 136] | > 50000 | – | 11100 | –
20 | O=c1[nH]c2cc(-c3ccccc3Cl)sc2c(=O)n1-c1cncc(C2CC2)c1 [Example 137] | 15 | – | 40.1 | –
21 | O=c1[nH]c2cc(-c3ccccc3Cl)sc2c(=O)n1-c1cnccc1C1CCOCC1 [Example 138] | 16.2 | – | 144 | –
22 | O=c1[nH]c2cc(-c3ccccc3Cl)sc2c(=O)n1-c1cnccc1N1CCOCC1 [Example 139] | 108 | – | 595 | –
23 | Cc1c(Cl)cncc1-n1c(=O)[nH]c2cc(-c3ccccc3Cl)ccc2c1=O [Example 140, 3-(5-chloro-4-methylpyridin-3-yl)-7-(2-chlorophenyl)quinazoline-2,4(1H,3H)-dione] | > 100000 | – | 429 | –
24 | COc1cncc(-n2c(=O)[nH]c3cc(-c4ccccc4Cl)ccc3c2=O)c1C [Example 141] | 6650 | – | 32200 | –

Row | SMILES | IC50 [1, 2] [nM] | EC50 (SARS-CoV-2-NLuc; [3]) [nM] | EC50 (SARS-CoV-2-NLuc; [4]) [nM] | IC50 ([1]; MPro IC50, recombinant SARS-CoV-2 Mpro) [nM]
25 | O=c1[nH]c2cc(-c3c(Cl)cccc3-c3ccn4ncnc4c3)ccc2c(=O)n1-c1cncc2ccccc12 [Example 142, 7-[2-chloro-6-([1,2,4]triazolo[1,5-a]pyridin-7-yl)phenyl]-3-(4-isoquinolyl)-1H-quinazoline-2,4-dione] | 8.62 | – | 31.5 | –
26 | COc1cc(-c2cccc(Cl)c2-c2ccc3c(=O)n(-c4cncc5ccccc45)c(=O)[nH]c3c2)cn2ncnc12 [Example 143] | 10.8 | 79.2 | – | –
27 | Cn1cc(-c2cccc(Cl)c2-c2ccc3c(=O)n(-c4cncc5ccccc45)c(=O)[nH]c3c2)cn1 [Example 144] | 95.4 | – | 68.2 | –
28 | O=c1[nH]c2cc(-c3c(Cl)cccc3-c3cc(C(F)(F)F)c4ncnn4c3)ccc2c(=O)n1-c1cncc2ccccc12 [Example 145] | 23.9 | 43 | – | –
29 | Cn1ccc(-c2cccc(Cl)c2-c2ccc3c(=O)n(-c4cncc5ccccc45)c(=O)[nH]c3c2)n1 [Example 146] | 99.7 | – | 60.6 | –
30 | O=c1[nH]c2cc(-c3c(Cl)cccc3-c3ccc4nccn4c3)ccc2c(=O)n1-c1cncc2ccccc12 [Example 147] | 11 | – | 17.1 | –
31 | Cc1nn(C)cc1-c1cccc(Cl)c1-c1ccc2c(=O)n(-c3cncc4ccccc34)c(=O)[nH]c2c1 [Example 148] | 10.4 | – | 14.1 | –
32 | NC(=O)c1ccc(-c2cccc(Cl)c2-c2ccc3c(=O)n(-c4cncc5ccccc45)c(=O)[nH]c3c2)cc1 [Example 149, 4-[3-chloro-2-[3-(4-isoquinolyl)-2,4-dioxo-1H-quinazolin-7-yl]phenyl]benzamide] | 19.2 | – | 40.2 | –
33 | Cn1cc2ccc(-n3c(=O)n(-c4cncc5ccccc45)c(=O)c4sc(-c5ccccc5Cl)cc43)cc2n1 [Example 152, 6-(2-chlorophenyl)-3-(isoquinolin-4-yl)-1-(2-methyl-2H-indazol-6-yl)thieno[3,2-d]pyrimidine-2,4(1H,3H)-dione] | 85.8 | – | 149 | –
34 | Cn1cnc(Cn2c(=O)n(-c3cncc4ccccc34)c(=O)c3sc(-c4ccccc4Cl)cc32)n1 [Example 153, 6-(2-chlorophenyl)-3-(4-isoquinolyl)-1-[(1-methyl-1,2,4-triazol-3-yl)methyl]thieno[3,2-d]pyrimidine-2,4-dione] | 18.5 | – | 66.1 | –
35 | O=c1c2sc(-c3ccccc3Cl)cc2n(Cc2cccnn2)c(=O)n1-c1cncc2ccccc12 [Example 154] | 124 | – | 193 | –
36 | O=c1c2sc(-c3ccccc3Cl)cc2n(Cc2ccnnc2)c(=O)n1-c1cncc2ccccc12 [Example 155] | 9.13 | – | 125 | –
37 | O=c1c2sc(-c3ccccc3Cl)cc2n(Cc2cccnc2)c(=O)n1-c1cncc2ccccc12 [Example 156] | 167 | – | 171 | –
38 | O=c1c2sc(-c3ccccc3Cl)cc2n(Cc2ccncc2)c(=O)n1-c1cncc2ccccc12 [Example 157] | 164 | – | 204 | –
39 | O=c1[nH]c2sc(-c3ccccc3)nc2c(=O)n1-c1cncc2ccccc12 [Example 158, 6-(isoquinolin-4-yl)-2-phenylthiazolo[5,4-d]pyrimidine-5,7(4H,6H)-dione] | 133 | – | 19100 | –
40 | C#Cc1cccc(Cl)c1-c1ccc2c(=O)n(-c3cncc4ccccc34)c(=O)[nH]c2c1 [Example 159, 7-(2-chloro-6-ethynyl-phenyl)-3-(4-isoquinolyl)-1H-quinazoline-2,4-dione] | 988 | – | 335 | –
41 | O=c1[nH]c2cc(-c3c(Cl)cccc3-c3cn(C4CC4)nn3)ccc2c(=O)n1-c1cncc2ccccc12 [Example 160, 7-(2-chloro-6-(1-cyclopropyl-1H-1,2,3-triazol-4-yl)phenyl)-3-(isoquinolin-4-yl)quinazoline-2,4(1H,3H)-dione] | 17.2 | – | 56.8 | –
42 | O=c1[nH]c2cc(-c3c(Cl)cccc3-c3nc4ccccc4[nH]3)ccc2c(=O)n1-c1cncc2ccccc12 [Example 161, 7-[2-(1H-benzimidazol-2-yl)-6-chloro-phenyl]-3-(4-isoquinolyl)-1H-quinazoline-2,4-dione] | 27.1 | – | 129 | –
43 | O=c1[nH]c2cc(-c3c(F)cccc3Cl)ccc2c(=O)n1-c1cncc2ccccc12 [Example 162, 7-(2-Chloro-6-fluoro-phenyl)-3-(4-isoquinolyl)-1H-quinazoline-2,4-dione] | 344 | – | 392 | –
44 | O=c1[nH]c2cc(-c3ccccc3Cl)ncc2c(=O)n1-c1cncc2ccccc12 [Example 163, 7-(2-chlorophenyl)-3-(4-isoquinolyl)-1H-pyrido[4,3-d]pyrimidine-2,4-dione] | 489 | – | 932 | –
45 | O=c1[nH]c2cc(-c3ccccc3)ncc2c(=O)n1-c1cncc2ccccc12 [Example 164] | 7880 | – | 12500 | –
46 | Cc1ccccc1-c1cc2[nH]c(=O)n(-c3cncc4ccccc34)c(=O)c2cn1 [Example 165] | 1470 | – | 2470 | –
47 | O=c1[nH]c2cc(-c3ncco3)sc2c(=O)n1-c1cncc2ccccc12 [Example 166, 3-(isoquinolin-4-yl)-6-(oxazol-2-yl)thieno[3,2-d]pyrimidine-2,4(1H,3H)-dione] | 942 | – | 4420 | –
